Data from publication PMC7492092 (European journal of medicinal chemistry, 2020).

Tests used:
Cytotoxicity assay = type: cell-based; details: human, TZM-GFP cells
[1] = Microsomal stability assay, mouse liver microsomes; type: in vitro ADME; details: pre-incubation with Cobi vs without
[2] = Microsomal stability assay, human liver microsomes; type: in vitro ADME; details: pre-incubation with Cobi vs without

increase of half-life with Cobicistat (MLM) [1] [fold]	increase of half-life with Cobicistat (HLM) [2] [fold]	Compound	CC50 at 72 h (Cytotoxicity assay) [µM]
–	–	CN(C(=O)[C@H](Cc1ccccc1)NC(=O)Cc1c[nH]c2ccccc12)c1ccc(Cl)nc1 [Compd 37, (S)-2-(2-(1H-indol-3-yl)acetamido)-N-(6-chloropyridin-3-yl)-N-methyl-3-phenylpropanamide]	57 ± 0.3
74	62	CN(C(=O)[C@H](Cc1ccccc1)NC(=O)Cc1c[nH]c2ccccc12)c1ccc(Br)cc1 [Compd 32, (S)-2-(2-(1H-indol-3-yl)acetamido)-N-(4-bromophenyl)-N-methyl-3-phenylpropanamide]	–
